Source: patent US20220340598A1, “PYRAZOLOPYRIDINONE COMPOUNDS” (Janssen Pharmaceutica NV, priority 2017, published 2022)
Counter-ions that a name gives are not always drawn.

Tests used:
[1] = target: T1, NIH/3T3 cells overexpressing FGFR3 WT-TACC3 fusion protein (Homo sapiens, UniProt P22607); assay: NIH/3T3 FGFR3 WT-TACC3 cell proliferation assay; assay type: cell-based; settings: 72-hr incubation, CellTiter Glo; read-out: NIH/3T3 FGFR3 WT-TACC3 CTG (IC50)
T1 construct: fused on or other part: Q9Y6A5 (Transforming acidic coiled-coil-containing protein 3)
Experimental: NIH/3T3 FGFR3 WT-TACC3 Cell Proliferation Assay
(§1) In day 1, 90 μL of cell suspension (NIH/3T3 cells overexpressing FGFR3 WT-TACC3 fusion protein) (total 30,000 cells per well in growth medium (DMEM containing 1% Glutamax, 10% FBS and 1% Pen/Strep)) was seeded in a 96-well plate and then incubated overnight at 37° C. and 5% CO2. In day 2, 10 μL of growth medium containing 10-fold stock solution of testing compound was added into cell cultures (9 dose points with 4× serial dilution, starting with 10 μM, 0.1% DMSO final). After 72-hr incubation at 37° C. and 5% CO2, in day 5 a volume of 50 μL CellTiter Glo (CTG) reagent was added into cell-containing 96-well plate and the plate was incubated at room temperature for 10 minutes before RLUs (relative light unit) were measured on a microplate reader with luminescence detection module. The RLU value was normalized to survival % and concentration-response curve was plotted using Prism to calculate IC50 (M), pIC50 (−log IC50) and HillSlope value.

[2] = target: T2, NIH/3T3 cells overexpressing FGFR3 V555M-TACC3 fusion protein (Homo sapiens, UniProt P22607, V555M, cells depend on it); assay: NIH/3T3 FGFR3 V555M-TACC3 cell proliferation assay; assay type: cell-based; settings: 72-hr incubation, CellTiter Glo; read-out: NIH/3T3 FGFR3 V555M-TACC3 CTG (IC50)
T2 construct: fused on or other part: Q9Y6A5 (Transforming acidic coiled-coil-containing protein 3)
Experimental: NIH/3T3 FGFR3 V555M-TACC3 Cell Proliferation Assay
as §1, with “V555M-TACC3” for “WT-TACC3”

T1 sequence (P22607 whole entry, change not shown, the tested form may be a part): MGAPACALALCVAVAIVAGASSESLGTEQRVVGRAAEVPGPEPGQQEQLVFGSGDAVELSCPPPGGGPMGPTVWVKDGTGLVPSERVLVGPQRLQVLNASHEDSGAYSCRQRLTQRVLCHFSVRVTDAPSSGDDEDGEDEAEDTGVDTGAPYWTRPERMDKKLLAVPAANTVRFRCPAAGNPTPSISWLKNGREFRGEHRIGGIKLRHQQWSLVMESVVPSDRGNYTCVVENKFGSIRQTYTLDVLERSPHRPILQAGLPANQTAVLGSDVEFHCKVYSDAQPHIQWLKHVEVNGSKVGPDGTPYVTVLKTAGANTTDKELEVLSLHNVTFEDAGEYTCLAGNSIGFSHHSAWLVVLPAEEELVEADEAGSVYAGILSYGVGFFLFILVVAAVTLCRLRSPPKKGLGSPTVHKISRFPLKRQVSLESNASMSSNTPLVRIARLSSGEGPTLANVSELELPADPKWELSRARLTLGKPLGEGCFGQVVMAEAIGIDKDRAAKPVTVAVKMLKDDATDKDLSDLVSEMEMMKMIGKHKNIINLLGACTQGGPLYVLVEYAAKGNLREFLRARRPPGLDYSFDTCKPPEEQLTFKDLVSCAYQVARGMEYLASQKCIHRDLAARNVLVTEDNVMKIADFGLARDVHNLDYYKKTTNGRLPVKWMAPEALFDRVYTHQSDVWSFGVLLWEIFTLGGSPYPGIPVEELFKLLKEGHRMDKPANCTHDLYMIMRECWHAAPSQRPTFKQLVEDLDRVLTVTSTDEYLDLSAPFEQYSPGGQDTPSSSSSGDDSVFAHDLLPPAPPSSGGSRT
T2 sequence (P22607 whole entry V555M, the tested form may be a part): as the sequence (P22607 whole entry, change not shown, the tested form may be a part) above, with V555M counted along it

GI50 [1] | GI50 [2] | Compound
106 nM | 109 nM | COCC(Nc1c(-c2nc3ccc(OC)cc3[nH]2)c(=O)[nH]c2cn(C)nc12)c1ncccn1 (single isomer, unassigned) [Compound 12, (S*)-7-((2-methoxy-1-(pyrimidin-2-yl)ethyl)amino)-6-(6-methoxy-1H-benzo[d]imidazol-2-yl)-2-methyl-2H-pyrazolo[4,3-b]pyridin-5(4H)-one]
27.6 nM | 23.9 nM | CCC(Nc1c(-c2nc3ccc(OC)cc3[nH]2)c(=O)[nH]c2cn(C)nc12)c1ncccn1 (single isomer, unassigned) [Compound 17, (R*)-6(6-Methoxy-1H-benzo[d]imidazol-2-yl)-2-methyl-7-((1-(pyrimidin-2-yl)propyl)amino)-2H-pyrazolo[4,3-b]pyridin-5(4H)-one]
71.9 nM | 51.5 nM | COc1cc2[nH]c(-c3c(NC(c4ncccn4)C(C)C)c4nn(C)cc4[nH]c3=O)nc2cn1 (single isomer, unassigned) [Compound 18, (S*)-6-(6-methoxy-1H-imidazo[4,5-c]pyridin-2-yl)-2-methyl-7-((2-methyl-1-(pyrimidin-2-yl)propyl)amino)-2H-pyrazolo[4,3-b]pyridin-5(4H)-one]
81 nM | 78.5 nM | COc1cnc2nc(-c3c(NC(c4ncccn4)C(C)C)c4nn(C)cc4[nH]c3=O)[nH]c2c1 (single isomer, unassigned) [Compound 40, (S*)-6-(6-methoxy-1H-imidazo[4,5-b]pyridin-2-yl)-2-methyl-7-((2-methyl-1-(pyrimidin-2-yl)propyl)amino)-2,4-dihydro-5H-pyrazolo[4,3-b]pyridin-5-one]
 | 18.2 nM | CCC(Nc1c(-c2nc3cc(OC)c(OC)cc3[nH]2)c(=O)[nH]c2cn(C)nc12)c1ncccn1 (single isomer, unassigned) [Compound 42, (S*)-6-(5,6-dimethoxy-1H-benzo[d]imidazol-2-yl)-2-methyl-7-((1-(pyrimidin-2-yl)propyl)amino)-2H-pyrazolo[4,3-b]pyridin-5(4H)-one]
31.7 nM | 51.6 nM | CCC(Nc1c(-c2nc3cc(OC)c(OC)cc3[nH]2)c(=O)[nH]c2cn(CC)nc12)c1ncccn1 (single isomer, unassigned) [Compound 44, (S*)-6-(5,6-dimethoxy-1H-benzo[d]imidazol-2-yl)-2-ethyl-7-((1-(pyrimidin-2-yl)propyl)amino)-2H-pyrazolo[4,3-b]pyridin-5(4H)-one]
22.7 nM | 27.6 nM | COc1cc2nc(-c3c(NC(c4ncccn4)C4CC4)c4nn(C)cc4[nH]c3=O)[nH]c2cc1OC (single isomer, unassigned) [Compound 46, (S*)-7-((cyclopropyl(pyrimidin-2-yl)methyl)amino)-6-(5,6-dimethoxy-1H-benzo[d]imidazol-2-yl)-2-methyl-2H-pyrazolo[4,3-b]pyridin-5(4H)-one]
58 nM | 37.3 nM | CC(C)[C@H](Nc1c(-c2nc3ncc(N(C)C)cc3[nH]2)c(=O)[nH]c2cn(C)nc12)c1ncccn1 (stereo in doubt) [Compound 23, (S*)-6-(6-(dimethylamino)-1H-imidazo[4,5-b]pyridin-2-yl)-2-methyl-7-((2-methyl-1-(pyrimidin-2-yl)propyl)amino)-2H-pyrazolo[4,3-b]pyridin-5(4H)-one 0.14 formate]
18 nM | 16.1 nM | COc1cc(F)c2nc(-c3c(N[C@@H](C)c4ncccn4)c4nn(C)cc4[nH]c3=O)[nH]c2c1 [Compound 2, (S)-6-(4-fluoro-6-methoxy-1H-benzo[d]imidazol-2-yl)-2-methyl-7-((1-(pyrimidin-2-yl)-ethyl)amino)-2H-pyrazolo[4,3-b]pyridin-5(4H)-one]
23.4 nM | 32.6 nM | COc1cnc2nc(-c3c(N[C@@H](C)c4ncccn4)c4nn(C)cc4[nH]c3=O)[nH]c2c1 [Compound 3, (S)-6-(6-methoxy-1H-imidazo[4,5-b]pyridin-2-yl)-2-methyl-7-((1-(pyrimidin-2-yl)ethyl)amino)-2H-pyrazolo[4,3-b]pyridin-5(4H)-one]
21.9 nM | 31.8 nM | CCn1cc2[nH]c(=O)c(-c3nc4ccc(OC)cc4[nH]3)c(N[C@@H](C)c3ncccn3)c2n1 [Compound 4, (S)-2-ethyl-6-(6-methoxy-1H-benzo[d]imidazol-2-yl)-7-((1-(pyrimidin-2-yl)ethyl)amino)-2H-pyrazolo[4,3-b]pyridin-5(4H)-one]
6.03 nM | 6.37 nM | CCOc1cc2[nH]c(-c3c(N[C@@H](C)c4ncccn4)c4nn(C)cc4[nH]c3=O)nc2cc1OC [Compound 7, (S)-6-(6-ethoxy-5-methoxy-1H-benzo[d]imidazol-2-yl)-2-methyl-7-((1-(pyrimidin-2-yl)ethyl)amino)-2,4-dihydro-5H-pyrazolo[4,3-b]pyridin-5-one]
19.1 nM | 23 nM | CCOc1cc2[nH]c(-c3c(N[C@@H](C)c4ncccn4)c4nn(CC)cc4[nH]c3=O)nc2cc1OC [Compound 8, (S)-6-(6-ethoxy-5-methoxy-1H-benzo[d]imidazol-2-yl)-2-ethyl-7-((1-(pyrimidin-2-yl)ethyl)amino)-2H-pyrazolo[4,3-b]pyridin-5(4H)-one]
24.4 nM | 24.6 nM | CC[C@H](Nc1c(-c2nc3cnc(N(C)C)cc3[nH]2)c(=O)[nH]c2cn(C)nc12)c1ncccn1 [Compound 22, (S)-6-(6-(dimethylamino)-1H-imidazo[4,5-c]pyridin-2-yl)-2-methyl-7-((1-(pyrimidin-2-yl)propyl)amino)-2H-pyrazolo[4,3-b]pyridin-5(4H)-one]
16 nM | 20.8 nM | COc1cc(OC)c2nc(-c3c(N[C@@H](C)c4ncccn4)c4nn(C)cc4[nH]c3=O)[nH]c2c1 [Compound 29, (S)-6-(4,6-Dimethoxy-1H-benzo[d]imidazol-2-yl)-2-methyl-7-((1-(pyrimidin-2-yl)ethyl)amino)-2H-pyrazolo[4,3-b]pyridin-5(4H)-one]
11.1 nM | 7.88 nM | COc1cc2[nH]c(-c3c(N[C@@H](C)c4ncccn4)c4nn(C)cc4[nH]c3=O)nc2cn1 [Compound 30, (S)-6-(6-methoxy-1H-imidazo[4,5-c]pyridin-2-yl)-2-methyl-7-((1-(pyrimidin-2-yl)ethyl)amino)-2H-pyrazolo[4,3-b]pyridin-5(4H)-one]
 | 64.5 nM | CCn1cc2[nH]c(=O)c(-c3nc4c(OC)cc(OC)cc4[nH]3)c(N[C@@H](C)c3ncccn3)c2n1 [Compound 31, (S)-6-(4,6-dimethoxy-1H-benzo[d]imidazol-2-yl)-2-ethyl-7-((1-(pyrimidin-2-yl)ethyl)amino)-2H-pyrazolo[4,3-b]pyridin-5(4H)-one]
43.2 nM | 69.6 nM | CCn1cc2[nH]c(=O)c(-c3nc4c(OC)cccc4[nH]3)c(N[C@@H](C)c3ncccn3)c2n1 [Compound 32, (S)-2-ethyl-6-(4-methoxy-1H-benzo[d]imidazol-2-yl)-7-((1-(pyrimidin-2-yl)ethyl)amino)-2H-pyrazolo[4,3-b]pyridin-5(4H)-one]
16.8 nM | 29.6 nM | CCn1cc2[nH]c(=O)c(-c3nc4cc(OC)c(OC)cc4[nH]3)c(N[C@@H](C)c3ncccn3)c2n1 [Compound 37, (S)-6-(5,6-dimethoxy-1H-benzo[d]imidazol-2-yl)-2-ethyl-7-((1-(pyrimidin-2-yl)ethyl)amino)-2H-pyrazolo[4,3-b]pyridin-5(4H)-one]
 | 37.3 nM | CCn1cc2[nH]c(=O)c(-c3nc4cc(OC)c(OCCOC)cc4[nH]3)c(N[C@@H](C)c3ncccn3)c2n1 [Compound 38, (S)-2-ethyl-6-(5-methoxy-6-(2-methoxyethoxy)-1H-benzo[d]imidazol-2-yl)-7-((1-(pyrimidin-2-yl)ethyl)amino)-2H-pyrazolo[4,3-b]pyridin-5(4H)-one]
 | 31.1 nM | CCn1cc2[nH]c(=O)c(-c3nc4cc(OC)c(OC)cc4[nH]3)c(N[C@@H](C)c3ccccn3)c2n1 [Compound 51, (S)-6-(5,6-dimethoxy-1H-benzo[d]imidazol-2-yl)-2-ethyl-7-((1-(pyridin-2-yl)ethyl)amino)-2,4-dihydro-5H-pyrazolo[4,3-b]pyridin-5-one]
 | 29.6 nM | (S)-6-(5,6-Dimethoxy-1H-benzo[d]imidazol-2-yl)-2-ethyl-7-((1-(pyrimidin-2-yl)ethyl)-amino)-2H-pyrazolo[4,3-b]pyridin-5(4H)-one [Compound 6]
